Experiments:
[1] = tested on: colorectal cancer cells; assay: Sensitivity of colorectal cancer cells to doxorubicin; assay type: cell-based; conditions: earlier studies of the inventors
Description: The inventors have also shown that AR inhibition prevents colorectal cancer cells growth in tissue culture, nude mouse xenografts, and chemically-induced animal models of colorectal cancer. Based on these studies, the inventors investigated whether an AR inhibitor such as fidarestat could be used as combination therapy along with immune checkpoint inhibitor such as an anti-PD1 antibody resulting in an increase in the immunotherapeutic efficacy of anti-PD1 and prevent CRC growth.

[2] = tested on: CT-26 cells; assay: CT-26 syngeneic Balb/c mouse tumor model, tumor growth; assay type: in vivo; conditions: CT-26 syngeneic mouse model
Protocol: CT-26 cells (0.5×10^6) were injected subcutaneously into the flanks of Balb/c mice (n=4-7) on day 0. When tumor volume reaches approximately 45 mm^3, the mice were injected (i.p.) anti-PD-1, 200 μg/mouse, twice per week. Aldose reductase inhibitor (ARI) (25 mg/kg/day) were given in drinking water or by gavage. CT26 tumor were left untreated (Con) or treated with fidarestat (Fid), anti-PD-1 (PD1) or combination of both (Combo). Con mice were also treated with isotype matched control antibodies (PD-1 iso). Tumor growth was measured twice per week and animals were euthanized when the tumor volume reaches 2000 mm^3 in the control mice (˜30 days). Tumor volume (A) and tumor weight (B) were measured. Data Mean S.E.M. P<0.05; *P<0.05; **P<0.01 by one-way ANOVA followed by Dunnet and Tukey's multiple comparison test.

[3] = Cardiotoxicity associated with anthracycline drugs; conditions: earlier studies of the inventors
[4] = tested on: MC38 cells; assay: MC38 subcutaneous tumor model in C57BL/6 WT and ARKO mice, tumor growth; assay type: in vivo, mouse; conditions: both the CRC models (CT26 and MC38)
Protocol: FIG. 7A-7D: AR deficiency/inhibition increases the efficacy of anti-PD1, decreases immune-related toxicities induced by anti-PD1 in CRC model, MC38. MC38 cells were inoculated subcutaneous in C57BL/6 WT and aldose reductase knockout (ARKO) mice. When tumors became palpable (approximately 40-43 mm^3), mice were randomized and treated with anti-PD-1 (twice a week), AR inhibitor (25 mg/kg/day in drinking water). MC38 tumor was left untreated in Con WT and ARKO or treated with Fid in WT, anti-PD-1 (PD1) in WT and ARKO or combination of both (Combo) in WT mice. Con WT and ARKO mice were also treated with isotype controls (PD-1 iso). […] Tumor growth was measured twice a week and animals were euthanized when the tumor volume reaches 2000 mm^3 in the control mice (approximately 27 days). […] Isolated TILs from tumors were analyzed by flow cytometry for intracellular staining of IFN-γ and granzyme B to analyze the effector function of CD8^+ T and NK cells in TILs. […]
MC38 cells were inoculated subcutaneous in C57BL/6 WT and aldose reductase knockout (ARKO) mice. […] Tumor growth was measured twice a week and animals were euthanized when the tumor volume reaches 2000 mm^3 in the control mice (approximately 27 days). […] Isolated TILs from tumors were analyzed by flow cytometry for intracellular staining of IFN-γ and granzyme B to analyze the effector function of CD8^+ T and NK cells in TILs. […]

[5] = Phase-III clinical trial, diabetic nephropathy; cited from earlier work

## NC(=O)[C@@H]1C[C@]2(NC(=O)NC2=O)c2cc(F)ccc2O1 [fidarestat, (2S,4S)-6-fluoro-2′,5′-dioxospiro(chroman-4,4′-imidazolidine)-2-carboxamide]
[1]
  sensitivity of colorectal cancer cells to doxorubicin: increased the sensitivity
[2]
  sensitivity of anti-PD1 immunotherapy: significantly increases the sensitivity of anti-PD1 immunotherapy
[3]
  cardiotoxicity associated with anthracycline drugs: prevented cardiotoxicity
[4]
  efficacy of anti-PD1 and tumor growth: increases the efficacy of anti-PD1 and decreases the tumor growth
[5]
  side effects: no major side effects

From patent publication US12090142B2, “Combination therapy for the treatment of cancer” (The Board of Regents of the University of Texas System, priority 2018, dated 2024)
